Data reported in BindingDB's records for doi:10.1021/jm050680m (Johnson & Johnson Pharmaceutical Research and Development, 2005).

What was measured:
[1] = Antiproliferative activity against PDGF-BB stimulated HCASMC
[2] = as above; remark: listed apart in the source

| Structure (SMILES) | IC50 [1] [nM] | IC50 [2] [nM] |
| --- | --- | --- |
| COc1cc2c(cc1OC)-c1n[nH]c(Nc3cccc(C(F)(F)F)c3)c1C2 [3-trifluoromethyl-N-(6,7-dimethoxy-2,4-dihydroindeno[1,2-c]pyrazol-3-yl)phenylamine] | – | 1 |
| COc1cccc2c1Cc1c-2n[nH]c1Nc1ccccc1 [(5-methoxy-2,4-dihydroindeno[1,2-c]pyrazol-3-yl)phenylamine] | – | 487 |
| COc1cc2c(cc1OC)-c1n[nH]c(Nc3cccc(F)c3)c1C2 [JNJ-10198409] | – | 3 |

Next, values leading:

| IC50 [1] [nM] | IC50 [2] [nM] | Structure (SMILES) |
| --- | --- | --- |
| 32 | – | COc1cc2c(cc1OC)-c1n[nH]c(Nc3cccc(Br)c3)c1C2 [3-bromo-N-(6,7-dimethoxy-2,4-dihydroindeno[1,2-c]pyrazol-3-yl)phenylamine] |
| – | 11 | COC(=O)c1cccc(Nc2[nH]nc3c2Cc2cc(OC)c(OC)cc2-3)c1 [3-carbomethoxy-N-(6,7-dimethoxy-2,4-dihydroindeno[1,2-c]pyrazol-3-yl)phenylamine] |
